Test results taken from EPA's ToxRefDB 2.

Experiments:
rat [1] = conditions: Combined chronic toxicity/carcinogenicity, wistar, Oral, Feed, dose end: 2 year, group: systemic
mouse [2] = conditions: Subchronic oral toxicity in rodents, other, Feed, dose end: 90 day, group: systemic
dog [3] = conditions: Chronic toxicity, beagle, Oral, Feed, dose end: 52 week, group: systemic
rat [4] = conditions: Subchronic oral toxicity in rodents, wistar, Feed, dose end: 90 day, group: systemic
rabbit [5] = conditions: Prenatal developmental toxicity study, new zealand white, Oral, Gavage/Intubation, dose end: 28 GD
rat [6] = conditions: Multigenerational reproductive toxicity study, Wistar, Oral, Feed, dose end: 2 generation
mouse [7] = conditions: Carcinogenicity, other, Oral, Feed, dose end: 18 month, group: systemic
rat [8] = conditions: Prenatal developmental toxicity study, wistar, Oral, Gavage/Intubation, dose end: 15 GD
rat [9] = conditions: Combined chronic toxicity/carcinogenicity; wistar; Oral; Diet; dose end: 104 week; group: systemic; systemic / in life observation / body weight / body weight + systemic / in life observation / food consumption / food consumption + systemic…
dog [10] = conditions: Chronic toxicity, beagle, Oral, Feed, dose end: 52 week, group: systemic; remark: listed apart in the source
mouse [11] = conditions: Carcinogenicity, other, Oral, Feed, dose end: 18 month, group: systemic; remark: listed apart in the source
rabbit [12] = conditions: Prenatal developmental toxicity study, himalayan, Oral, Gavage/Intubation, dose end: 28 GD
rat [13] = conditions: Chronic toxicity, wistar, Oral, Feed, dose end: 104 week, group: systemic
rat [14] = conditions: Carcinogenicity, wistar, Oral, Feed, dose end: 24 month, group: systemic
rat [15] = conditions: Multigenerational reproductive toxicity study, wistar, Oral, Feed, dose end: 2 generation
dog [16] = conditions: Subchronic oral toxicity in nonrodent, beagle, Feed, dose end: 90 day, group: systemic
mouse [17] = conditions: Subchronic oral toxicity in rodents, other, Feed, dose end: 90 day, group: systemic; remark: listed apart in the source
rat [18] = conditions: Subchronic oral toxicity in rodents, wistar, Feed, dose end: 90 day, group: systemic, systemic / organ weight / thyroid gland / absolute + systemic / organ weight / thyroid gland / relative to body weight + systemic / …
[19] = systemic / in life observation / body weight / body weight + systemic / in life observation / body weight / body weight gain + systemic / …
[20] = systemic / clinical chemistry / cholesterol / cholesterol + systemic / pathology microscopic / liver / hypertrophy + systemic / clinical …
[21] = systemic / hematology / erythrocyte (rbc) count differential / erythrocyte (rbc) + systemic / hematology / hematocrit (hct) / hematocrit (…
[22] = systemic / clinical chemistry / alkaline phosphatase (alp/alk) / alkaline phosphatase (alp/alk) + systemic / clinical chemistry / urea …
[23] = group: developmental, developmental / developmental malformation / bone / hole(s) + developmental / developmental malformation / bone / incomplete ossification + …
[24] = group: maternal, reproductive / reproductive performance / aborted / aborted + systemic / in life observation / body weight / body weight gain + systemic / …
[25] = group: offspring, systemic / in life observation / body weight / offspring (pup) weight gain
[26] = group: parental, systemic / in life observation / body weight / body weight gain
[27] = systemic / pathology microscopic / epididymis / dilatation + systemic / pathology microscopic / epididymis / infiltration cellular + …
[28] = group: developmental, systemic / in life observation / body weight / fetal weight
[29] = group: maternal, systemic / in life observation / body weight / body weight + systemic / in life observation / body weight / body weight gain
[30] = systemic / clinical chemistry / alkaline phosphatase (alp/alk) / alkaline phosphatase (alp/alk) + systemic / organ weight / liver / absolute…
[31] = systemic / in life observation / body weight / body weight + systemic / organ weight / liver / absolute + systemic / organ weight / liver / …
[32] = group: developmental, developmental / developmental malformation / bone / incomplete ossification
[33] = group: maternal, reproductive / reproductive performance / aborted / aborted + reproductive / reproductive performance / premature delivery / premature …
[34] = systemic / clinical chemistry / alanine aminotransferase (alt/sgpt) / alanine aminotransferase (alt/sgpt) + systemic / clinical chemistry / …
[35] = systemic / organ weight / thyroid gland / absolute + systemic / pathology microscopic / thyroid gland / hyperplasia + systemic / pathology …
[36] = group: offspring, systemic / in life observation / body weight / offspring (pup) weight + systemic / in life observation / body weight / offspring (pup) …
[37] = group: offspring, systemic / organ weight / thymus / absolute
[38] = group: parental, systemic / pathology microscopic / liver / degeneration + systemic / pathology microscopic / liver / hypertrophy
[39] = group: reproductive, reproductive / reproductive performance / implantations / implantations
[40] = systemic / hematology / blood clotting / blood clotting - prothrombin time
[41] = systemic / organ weight / liver / absolute
[42] = systemic / organ weight / liver / absolute + systemic / organ weight / liver / relative to body weight + systemic / pathology microscopic / …

Q: What does the source list for `O=C(Nc1ccccc1)Nc1cnns1` [Thidiazuron]?
A: LOAEL (rat [1]; [19]): 36.4 mg/kg/day; NOAEL (rat [1]; [19]): 8 mg/kg/day; NEL (rat [1]; systemic / pathology microscopic / kidney / mineralization + systemic / pathology microscopic / kidney / dilatation + systemic / pathology …): 105 mg/kg/day; LOAEL (mouse [2]; systemic / clinical chemistry / cholesterol / cholesterol + systemic / pathology microscopic / liver / hypertrophy): 171 mg/kg/day; NEL (mouse [2]; [20]): 85.2 mg/kg/day; NOAEL (mouse [2]; [20]): 85.2 mg/kg/day; LEL (mouse [2]; systemic / clinical chemistry / cholesterol / cholesterol + systemic / pathology microscopic / liver / hypertrophy + systemic / organ weight…): 171 mg/kg/day; LOAEL (dog [3]; [21]): 11.8 mg/kg/day; NOAEL (dog [3]; [21]): 3.93 mg/kg/day; LEL (dog [3]; systemic / organ weight / spleen / absolute + systemic / organ weight / spleen / relative to body weight): 11.1 mg/kg/day; NEL (dog [3]; systemic / organ weight / spleen / absolute + systemic / organ weight / spleen / relative to body weight + systemic / hematology / …): 4.01 mg/kg/day; LOAEL (rat [4]; [22]): 102 mg/kg/day; NEL (rat [4]; [22]): 11.2 mg/kg/day; NOAEL (rat [4]; [22]): 34.5 mg/kg/day; LEL (rat [4]; systemic / clinical chemistry / phosphorus / phosphorus): 34.5 mg/kg/day; LEL (rabbit [5]; [23]): 125 mg/kg/day; LOAEL (rabbit [5]; [23]): 125 mg/kg/day; NEL (rabbit [5]; [23]): 25 mg/kg/day; NOAEL (rabbit [5]; [23]): 25 mg/kg/day; LEL (rabbit [5]; [24]): 125 mg/kg/day; LOAEL (rabbit [5]; [24]): 125 mg/kg/day; NEL (rabbit [5]; [24]): 25 mg/kg/day; NOAEL (rabbit [5]; [24]): 25 mg/kg/day; LEL (rat [6]; [25]): 108 mg/kg/day; LOAEL (rat [6]; [25]): 108 mg/kg/day; NEL (rat [6]; [25]): 35.4 mg/kg/day; NOAEL (rat [6]; [25]): 35.4 mg/kg/day; LEL (rat [6]; [26]): 108 mg/kg/day; LOAEL (rat [6]; [26]): 108 mg/kg/day; NEL (rat [6]; [26]): 35.4 mg/kg/day; NOAEL (rat [6]; [26]): 35.4 mg/kg/day; LOAEL (mouse [7]; systemic / pathology microscopic / epididymis / dilatation + systemic / pathology microscopic / epididymis / infiltration cellular): 86.7 mg/kg/day; LEL (mouse [7]; [27]): 86.7 mg/kg/day; NEL (mouse [7]; [27]): 26.5 mg/kg/day; NOAEL (mouse [7]; [27]): 26.5 mg/kg/day; LEL (rat [8]; [28]): 300 mg/kg/day; LOAEL (rat [8]; [28]): 300 mg/kg/day; NEL (rat [8]; [28]): 100 mg/kg/day; NOAEL (rat [8]; [28]): 100 mg/kg/day; LEL (rat [8]; [29]): 300 mg/kg/day; LOAEL (rat [8]; [29]): 300 mg/kg/day; NEL (rat [8]; [29]): 100 mg/kg/day; NOAEL (rat [8]; [29]): 100 mg/kg/day; LEL (rat [9]): 31.7 mg/kg/day; LOAEL (rat [9]): > 31.7 mg/kg/day; NEL (rat [9]): 10.6 mg/kg/day; NOAEL (rat [9]): ≥ 31.7 mg/kg/day

Q: `O=C(Nc1ccccc1-c1ccc(Cl)cc1)c1cccnc1Cl` [Boscalid] was tested. Which LOAEL (dog [10]; systemic / clinical chemistry / alkaline phosphatase (alp/alk) / alkaline phosphatase (alp/alk) + systemic / organ weight / liver / absolute) did it give?
A: 57.4 mg/kg/day

Q: And the LEL (dog [10]; [30])?
A: 57.4 mg/kg/day

Q: What about the NEL (dog [10]; [30]) of the same compound?
A: 21.8 mg/kg/day

Q: What about the NOAEL (dog [10]; [30]) of the same compound?
A: 21.8 mg/kg/day

Q: What about the LOAEL (mouse [11]; systemic / in life observation / body weight / body weight) of the same compound?
A: 331 mg/kg/day

Q: What about the NEL (mouse [11]; [31]) of the same compound?
A: 13 mg/kg/day

Q: What about the NOAEL (mouse [11]; [31]) of the same compound?
A: 65 mg/kg/day

Q: And the LEL (mouse [11]; systemic / in life observation / body weight / body weight + systemic / organ weight / liver / relative to body weight)?
A: 65 mg/kg/day

Q: And the LEL (rabbit [12]; [32])?
A: 1000 mg/kg/day

Q: What about the LOAEL (rabbit [12]; [32]) of the same compound?
A: > 1000 mg/kg/day

Q: And the NEL (rabbit [12]; [32])?
A: 300 mg/kg/day

Q: What about the NOAEL (rabbit [12]; [32]) of the same compound?
A: ≥ 1000 mg/kg/day

Q: What about the LEL (rabbit [12]; [33]) of the same compound?
A: 1000 mg/kg/day

Q: What about the LOAEL (rabbit [12]; [33]) of the same compound?
A: 1000 mg/kg/day

Q: And the NEL (rabbit [12]; [33])?
A: 300 mg/kg/day

Q: What about the NOAEL (rabbit [12]; [33]) of the same compound?
A: 300 mg/kg/day

Q: And the LEL (rat [13]; [34])?
A: 5.9 mg/kg/day

Q: And the NEL (rat [13]; [34])?
A: < 5.9 mg/kg/day

Q: And the LOAEL (rat [13]; [35])?
A: 110 mg/kg/day

Q: What about the NOAEL (rat [13]; [35]) of the same compound?
A: 21.9 mg/kg/day

Q: What about the NEL (rat [14]; systemic / in life observation / mortality / mortality + systemic / in life observation / body weight / body weight + systemic / in life …) of the same compound?
A: 1020 mg/kg/day

Q: What about the LOAEL (rat [14]; systemic / pathology microscopic / thyroid gland / hyperplasia + systemic / pathology microscopic / thyroid gland / hypertrophy) of the same compound?
A: 116 mg/kg/day

Q: What about the NOAEL (rat [14]; systemic / pathology microscopic / thyroid gland / hyperplasia + systemic / pathology microscopic / thyroid gland / hypertrophy + systemic…) of the same compound?
A: 23 mg/kg/day

Q: What about the LOAEL (rat [15]; [36]) of the same compound?
A: 124 mg/kg/day

Q: And the NOAEL (rat [15]; [36])?
A: 12.3 mg/kg/day

Q: And the LEL (rat [15]; [37])?
A: 12.3 mg/kg/day

Q: And the NEL (rat [15]; [37])?
A: < 12.3 mg/kg/day

Q: And the LOAEL (rat [15]; group: parental, systemic / pathology microscopic / liver / degeneration)?
A: 1030 mg/kg/day

Q: What about the NEL (rat [15]; [38]) of the same compound?
A: 10.1 mg/kg/day

Q: What about the NOAEL (rat [15]; [38]) of the same compound?
A: 101 mg/kg/day

Q: What about the LEL (rat [15]; group: parental, systemic / pathology microscopic / liver / hypertrophy) of the same compound?
A: 101 mg/kg/day

Q: And the LEL (rat [15]; [39])?
A: 10.7 mg/kg/day

Q: And the LOAEL (rat [15]; [39])?
A: > 1060 mg/kg/day

Q: And the NEL (rat [15]; [39])?
A: < 10.7 mg/kg/day

Q: What about the NOAEL (rat [15]; [39]) of the same compound?
A: ≥ 1060 mg/kg/day

Q: What about the LOAEL (dog [16]; [30]) of the same compound?
A: 78.1 mg/kg/day

Q: And the NOAEL (dog [16]; [30])?
A: 7.6 mg/kg/day

Q: And the LEL (dog [16]; [40])?
A: 8.1 mg/kg/day

Q: And the NEL (dog [16]; [40])?
A: < 8.1 mg/kg/day

Q: What about the LEL (mouse [17]; [41]) of the same compound?
A: 42 mg/kg/day

Q: And the NEL (mouse [17]; [41])?
A: < 42 mg/kg/day

Q: And the LOAEL (mouse [17]; [42])?
A: 788 mg/kg/day

Q: And the NOAEL (mouse [17]; [42])?
A: 197 mg/kg/day

Q: And the LEL (rat [18])?
A: 137 mg/kg/day

Q: And the LOAEL (rat [18])?
A: 137 mg/kg/day

Q: What about the NEL (rat [18]) of the same compound?
A: 34 mg/kg/day

Q: And the NOAEL (rat [18])?
A: 34 mg/kg/day
